{"source": "patent US6465395B2", "about": "“Substituted methylene pyrazolinones and the herbicidal use thereof” (BASF Aktiengesellschaft, priority 2000, dated 2002)", "format_in_all_cases": "in vivo", "key": {"[1]": {"test_system": "GOSHI, Cotton, Gossypium hirsutum, L.", "test": "Postemergence herbicidal evaluation", "details": "crop (cotton)", "procedure": "(§1) The postemergence herbicidal activity of the compounds of the present invention is evaluated by the following tests. Seedling plants are grown in jiffy flats for about two weeks. The test compounds are dispersed in 80/20 (v/v) acetone/water mixtures containing 1.0% SUN-IT®II, a methylated seed oil, in sufficient quantities to provide the equivalent of about 0.006 kg/ha to 0.800 kg/ha of active compound when applied to the plants through a spray nozzle operating at 40 psi for a predetermined time. After spraying, the plants are placed on greenhouse benches and are cared for in accordance with conventional greenhouse procedures. Approximately two to three weeks after treatment, the seedling plants are examined and rated according to the rating system set forth below. Where more than one test is involved for a given compound, the data are averaged."}, "[2]": {"test_system": "PANDI, Panicum, Fall, Panicum dichotomiflorum, Michx", "test": "Postemergence herbicidal evaluation", "procedure": "as §1"}, "[3]": {"test_system": "AMBEL, Ragweed, Ambrosia artemisifolia, L.", "test": "Postemergence herbicidal evaluation", "procedure": "as §1"}, "[4]": {"test_system": "SETVI, Foxtail, Green, Setaria viridis, (L.) Beau", "test": "Postemergence herbicidal evaluation", "procedure": "as §1"}, "[5]": {"test_system": "CHEAL, Lambsquarters, Chenopodium album, L.", "test": "Postemergence herbicidal evaluation", "procedure": "as §1"}, "[6]": {"test_system": "ECHCG, Barnyardgrass, Echinochloa crus-galli, (L.) Beau", "test": "Postemergence herbicidal evaluation", "procedure": "as §1"}, "[7]": {"test_system": "IPOSS, Morningglory spp., Ipomoea spp.", "test": "Postemergence herbicidal evaluation", "procedure": "as §1"}, "[8]": {"test_system": "ZEAMX, Corn, Field, Zea mays, L.", "test": "Postemergence herbicidal evaluation", "details": "crop (corn)", "procedure": "as §1"}, "[9]": {"test_system": "ABUTH, Velvetleaf, Abutilon theophrasti, Medic.", "test": "Postemergence herbicidal evaluation", "procedure": "as §1"}, "[10]": {"test_system": "ORYSAT, Rice, Tebonnet, Oryza sativa, (L.) Tebonnet", "test": "Postemergence herbicidal evaluation", "details": "crop (rice)", "procedure": "as §1"}, "[11]": {"test_system": "PANDI, Panicum, Fall, Panicum dichotomiflorum, Michx", "test": "Preemergence herbicidal evaluation", "text": "(§2) The preemergence herbicidal activity of the test compounds of the present invention is exemplified by the following tests in which the seeds of a variety of monocotyledonous and dicotyledonous plants are separately mixed with potting soil and planted on top of approximately one inch of soil in separate pint cups. After planting, the cups are sprayed with the selected aqueous acetone solution containing test compound in sufficient quantity to provide the equivalent of about 0.0125 kg/ha to 0.800 kg/ha of test compound per cup. The treated cups are then placed on greenhouse benches, watered and cared for in accordance with conventional greenhouse procedures. Approximately two to four weeks after treatment, the tests are terminated and each cup is examined and rated according to the rating system provided in Example 12. When more than one test is performed for a given compound, the data are averaged."}, "[12]": {"test_system": "GOSHI, Cotton, Gossypium hirsutum, L.", "test": "Preemergence herbicidal evaluation", "details": "crop (cotton)", "text": "as §2"}, "[13]": {"test_system": "AMBEL, Ragweed, Ambrosia artemisifolia, L.", "test": "Preemergence herbicidal evaluation", "text": "as §2"}, "[14]": {"test_system": "SETVI, Foxtail, Green, Setaria viridis, (L.) Beau", "test": "Preemergence herbicidal evaluation", "text": "as §2"}, "[15]": {"test_system": "CHEAL, Lambsquarters, Chenopodium album, L.", "test": "Preemergence herbicidal evaluation", "text": "as §2"}, "[16]": {"test_system": "ECHCG, Barnyardgrass, Echinochloa crus-galli, (L.) Beau", "test": "Preemergence herbicidal evaluation", "text": "as §2"}, "[17]": {"test_system": "IPOSS, Morningglory spp., Ipomoea spp.", "test": "Preemergence herbicidal evaluation", "text": "as §2"}, "[18]": {"test_system": "ZEAMX, Corn, Field, Zea mays, L.", "test": "Preemergence herbicidal evaluation", "details": "crop (corn)", "text": "as §2"}, "[19]": {"test_system": "ABUTH, Velvetleaf, Abutilon theophrasti, Medic.", "test": "Preemergence herbicidal evaluation", "text": "as §2"}, "[20]": {"test_system": "ORYSAT, Rice, Tebonnet, Oryza sativa, (L.) Tebonnet", "test": "Preemergence herbicidal evaluation", "details": "crop (rice)", "text": "as §2"}}}
{"smiles": "CCCS/C(=C1\\C=NN(CC)C1=O)c1ccc2c(c1C)/C(=N/OC)CCS2(=O)=O", "note": "[Example 8a, 1-Ethyl-4-[(E)-(5-methyl-4-oxothiochroman-6-yl)(propylthio)methylene]-2-pyrazolin-5-one 4′-[(E)-O-methyloxime], S,S-dioxide]", "values": [{"measurement": "Herbicide rating GOSHI", "setting": "[1]; 0.0500 kg/ha", "value": 0.0}, {"measurement": "Herbicide rating GOSHI", "setting": "[1]; 0.1000 kg/ha", "value": 0.0}, {"measurement": "Herbicide rating GOSHI", "setting": "[1]; 0.2000 kg/ha", "value": 0.0}, {"measurement": "Herbicide rating GOSHI", "setting": "[1]; 0.4000 kg/ha", "value": 3.0}, {"measurement": "Herbicide rating GOSHI", "setting": "[1]; 0.8000 kg/ha", "value": 6.0}, {"measurement": "Herbicide rating PANDI", "setting": "[2]; 0.0500 kg/ha", "value": 3.0}, {"measurement": "Herbicide rating PANDI", "setting": "[2]; 0.1000 kg/ha", "value": 6.0}, {"measurement": "Herbicide rating PANDI", "setting": "[2]; 0.2000 kg/ha", "value": 7.0}, {"measurement": "Herbicide rating PANDI", "setting": "[2]; 0.4000 kg/ha", "value": 6.0}, {"measurement": "Herbicide rating PANDI", "setting": "[2]; 0.8000 kg/ha", "value": 9.0}, {"measurement": "Herbicide rating AMBEL", "setting": "[3]; 0.0500 kg/ha", "value": 2.0}, {"measurement": "Herbicide rating AMBEL", "setting": "[3]; 0.1000 kg/ha", "value": 3.0}, {"measurement": "Herbicide rating AMBEL", "setting": "[3]; 0.2000 kg/ha", "value": 6.0}, {"measurement": "Herbicide rating AMBEL", "setting": "[3]; 0.4000 kg/ha", "value": 7.0}, {"measurement": "Herbicide rating AMBEL", "setting": "[3]; 0.8000 kg/ha", "value": 8.0}, {"measurement": "Herbicide rating SETVI", "setting": "[4]; 0.0500 kg/ha", "value": 1.0}, {"measurement": "Herbicide rating SETVI", "setting": "[4]; 0.1000 kg/ha", "value": 4.0}, {"measurement": "Herbicide rating SETVI", "setting": "[4]; 0.2000 kg/ha", "value": 5.0}, {"measurement": "Herbicide rating SETVI", "setting": "[4]; 0.4000 kg/ha", "value": 8.0}, {"measurement": "Herbicide rating SETVI", "setting": "[4]; 0.8000 kg/ha", "value": 9.0}, {"measurement": "Herbicide rating CHEAL", "setting": "[5]; 0.0500 kg/ha", "value": 7.0}, {"measurement": "Herbicide rating CHEAL", "setting": "[5]; 0.1000 kg/ha", "value": 9.0}, {"measurement": "Herbicide rating CHEAL", "setting": "[5]; 0.2000 kg/ha", "value": 9.0}, {"measurement": "Herbicide rating CHEAL", "setting": "[5]; 0.4000 kg/ha", "value": 9.0}, {"measurement": "Herbicide rating CHEAL", "setting": "[5]; 0.8000 kg/ha", "value": 9.0}, {"measurement": "Herbicide rating ECHCG", "setting": "[6]; 0.0500 kg/ha", "value": 8.0}, {"measurement": "Herbicide rating ECHCG", "setting": "[6]; 0.1000 kg/ha", "value": 8.0}, {"measurement": "Herbicide rating ECHCG", "setting": "[6]; 0.2000 kg/ha", "value": 8.0}, {"measurement": "Herbicide rating ECHCG", "setting": "[6]; 0.4000 kg/ha", "value": 9.0}, {"measurement": "Herbicide rating ECHCG", "setting": "[6]; 0.8000 kg/ha", "value": 9.0}, {"measurement": "Herbicide rating IPOSS", "setting": "[7]; 0.0500 kg/ha", "value": 0.0}, {"measurement": "Herbicide rating IPOSS", "setting": "[7]; 0.1000 kg/ha", "value": 0.0}, {"measurement": "Herbicide rating IPOSS", "setting": "[7]; 0.2000 kg/ha", "value": 0.0}, {"measurement": "Herbicide rating IPOSS", "setting": "[7]; 0.4000 kg/ha", "value": 2.0}, {"measurement": "Herbicide rating IPOSS", "setting": "[7]; 0.8000 kg/ha", "value": 4.0}, {"measurement": "Herbicide rating ZEAMX", "setting": "[8]; 0.0500 kg/ha", "value": 0.0}, {"measurement": "Herbicide rating ZEAMX", "setting": "[8]; 0.1000 kg/ha", "value": 0.0}, {"measurement": "Herbicide rating ZEAMX", "setting": "[8]; 0.2000 kg/ha", "value": 0.0}, {"measurement": "Herbicide rating ZEAMX", "setting": "[8]; 0.4000 kg/ha", "value": 0.0}, {"measurement": "Herbicide rating ZEAMX", "setting": "[8]; 0.8000 kg/ha", "value": 0.5}, {"measurement": "Herbicide rating ABUTH", "setting": "[9]; 0.0500 kg/ha", "value": 0.0}, {"measurement": "Herbicide rating ABUTH", "setting": "[9]; 0.1000 kg/ha", "value": 1.0}, {"measurement": "Herbicide rating ABUTH", "setting": "[9]; 0.2000 kg/ha", "value": 2.0}, {"measurement": "Herbicide rating ABUTH", "setting": "[9]; 0.4000 kg/ha", "value": 8.0}, {"measurement": "Herbicide rating ABUTH", "setting": "[9]; 0.8000 kg/ha", "value": 6.0}, {"measurement": "Herbicide rating ORYSAT", "setting": "[10]; 0.0500 kg/ha", "value": 0.0}, {"measurement": "Herbicide rating ORYSAT", "setting": "[10]; 0.1000 kg/ha", "value": 0.7}, {"measurement": "Herbicide rating ORYSAT", "setting": "[10]; 0.2000 kg/ha", "value": 1.5}, {"measurement": "Herbicide rating ORYSAT", "setting": "[10]; 0.4000 kg/ha", "value": 5.0}, {"measurement": "Herbicide rating ORYSAT", "setting": "[10]; 0.8000 kg/ha", "value": 5.0}, {"measurement": "Herbicide rating PANDI", "setting": "[11]; 0.4000 kg/ha", "value": 5.0}, {"measurement": "Herbicide rating PANDI", "setting": "[11]; 0.8000 kg/ha", "value": 8.0}, {"measurement": "Herbicide rating GOSHI", "setting": "[12]; 0.4000 kg/ha", "value": 0.0}, {"measurement": "Herbicide rating GOSHI", "setting": "[12]; 0.8000 kg/ha", "value": 2.0}, {"measurement": "Herbicide rating AMBEL", "setting": "[13]; 0.4000 kg/ha", "value": 3.0}, {"measurement": "Herbicide rating AMBEL", "setting": "[13]; 0.8000 kg/ha", "value": 6.0}, {"measurement": "Herbicide rating SETVI", "setting": "[14]; 0.4000 kg/ha", "value": 4.0}, {"measurement": "Herbicide rating SETVI", "setting": "[14]; 0.8000 kg/ha", "value": 5.0}, {"measurement": "Herbicide rating CHEAL", "setting": "[15]; 0.4000 kg/ha", "value": 9.0}, {"measurement": "Herbicide rating CHEAL", "setting": "[15]; 0.8000 kg/ha", "value": 9.0}, {"measurement": "Herbicide rating ECHCG", "setting": "[16]; 0.4000 kg/ha", "value": 0.0}, {"measurement": "Herbicide rating ECHCG", "setting": "[16]; 0.8000 kg/ha", "value": 2.0}, {"measurement": "Herbicide rating IPOSS", "setting": "[17]; 0.4000 kg/ha", "value": 0.0}, {"measurement": "Herbicide rating IPOSS", "setting": "[17]; 0.8000 kg/ha", "value": 2.0}, {"measurement": "Herbicide rating ZEAMX", "setting": "[18]; 0.4000 kg/ha", "value": 0.0}, {"measurement": "Herbicide rating ZEAMX", "setting": "[18]; 0.8000 kg/ha", "value": 0.0}, {"measurement": "Herbicide rating ABUTH", "setting": "[19]; 0.4000 kg/ha", "value": 2.0}, {"measurement": "Herbicide rating ABUTH", "setting": "[19]; 0.8000 kg/ha", "value": 6.0}, {"measurement": "Herbicide rating ORYSAT", "setting": "[20]; 0.4000 kg/ha", "value": 0.0}, {"measurement": "Herbicide rating ORYSAT", "setting": "[20]; 0.8000 kg/ha", "value": 3.0}]}
